Measured values as given in BigSolDB 2.1.

CN1COCN(Cc2cnc(Cl)s2)C1=N[N+](=O)[O-]
solubility (mole fraction)
Conditions	278.15 K	283.15 K	288.15 K	293.15 K	298.15 K	303.15 K	308.15 K	313.15 K	318.15 K	323.15 K
in 1,4-dioxane	–	–	0.00255	0.00328	0.00404	0.00523	0.00637	0.00792	0.00985	0.0123
in 2-ethoxyethanol	0.00319	0.00411	0.00523	0.00627	0.00722	0.00839	0.01	0.0117	0.0141	0.0168
in 2-methoxyethanol	0.00727	0.00895	0.011	0.013	0.0152	0.0185	0.0218	0.026	0.0311	0.0374
in DMAc	0.0679	0.074	0.0817	0.0902	0.0988	0.108	0.12	0.133	0.145	0.157
in DMSO	–	–	0.0689	0.0786	0.0902	0.103	0.117	0.134	0.152	0.172
in acetic acid	–	–	–	0.013	0.0172	0.0227	0.0292	0.0387	0.0547	0.07
in acetonitrile	0.00704	0.00827	0.0105	0.0125	0.0149	0.0183	0.0227	0.0278	0.0344	0.0422
in methanol	0.000628	0.000817	0.00111	0.00141	0.00169	0.00225	0.00294	0.00397	0.00486	0.0063
in propionic acid	0.000769	0.00113	0.00147	0.00185	0.00252	0.00329	0.00406	0.00562	0.00739	0.00939
